# US20220265817A1, “THERAPEUTIC COMPOSITIONS AND METHODS FOR TREATING HEPATITIS B” (priority 2017, published 2022)
# System: HBV rcDNA in HepDE19 cells
# Assay: HepDE19 cell culture system, rcDNA quantitation using bDNA assay, MacSynergy II
# Format: cell-based, human hepatoma cell line
# Settings: for AVERAGE % INHIBITION (rcDNA): 4 replicates, SIRNA-NP ng/mL by row: r8 25, r9 8.333, r10 2.778, r11 0.926, r12 0.309, r13 0; for ADDITIVE INHIBITION: expected from additive interaction, SIRNA-NP ng/mL by row: r30 25, r31 8.333, r32 2.778, r33 0.926, r34 0.309, r35 0
# Procedure: In vitro combination studies were conducted using the method of Prichard and Shipman (Prichard M N, and Shipman C Jr., Antiviral Research, 1990, 14 (4-5), 181-205; and Prichard M N, et. al., MacSynergy II). HepDE19 cell culture system is a HepG2 (human hepatocarcinoma) derived cell line that supports HBV DNA replication and cccDNA formation in a tetracycline (Tet)-regulated manner and produces HBV rcDNA and a detectable reporter molecule dependent on the production and maintenance of cccDNA (Guo et al 2007. J. Virol 81:12472-12484). HepDE19 (50,000 cells/well) were plated in 96 well collagen-coated tissue-culture treated microtiter plates in DMEM/F12 medium supplemented with 10% fetal bovine serum, 1% penicillin-streptomycin and 1 μg/ml tetracycline and incubated in a humidified incubator at 37° C. and 5% CO2 overnight. Next day, the cells were switched to fresh medium without tetracycline and incubated for 4 hrs at 37° C. and 5% CO2. […] The two inhibitors were tested both singly as well as in combinations in a checkerboard fashion such that each concentration of inhibitor A was combined with each concentration of inhibitor B to determine their combination effects on inhibition of rcDNA production. Following a 7 day-incubation of cells with compound combinations, the level of rcDNA present in the inhibitor-treated wells was measured using a Quantigene 2.0 bDNA assay kit (Affymetrix, Santa Clara, Calif.) with HBV specific custom probe set and manufacturers instructions. […] The RLU data from the single compound treated cells were analyzed using XL-Fit module in Microsoft Excel to determine EC50 values using a 4-parameter curve fitting algorithm. Concurrently, the effect of compounds on cell viability was assessed using replicate plates, plated at a density of 5,000 cells/well and incubated for 4 days, to determine the ATP content as a measure of cell viability using the cell-titer glo reagent (CTG; Promega Corporation, Madison, Wis.) as per manufacturer's instructions.
# In vitro combination studies were conducted using the method of Prichard and Shipman (Prichard M N, Shipman C, Jr., Antiviral Res, 14, 181-205 (1990)). The HepDE19 cell line was developed as described in Guo et al. (Guo et al., J Virol, 81, 12472-12484 (2007)). It is a human hepatoma cell line stably transfected with the HBV genome, and which can express HBV pregenomic RNA and support HBV rcDNA (relaxed circular DNA) synthesis in a tetracycline-regulated manner. HepDE19 cells were plated in 96 well tissue-culture treated microtiter plates in DMEM/F12 medium supplemented with 10% fetal bovine serum+1% penicillin-streptomycin without tetracycline and incubated in a humidified incubator at 37° C. and 5% CO2 overnight. […] The two inhibitors were tested both singly as well as in combinations in a checkerboard fashion such that each concentration of inhibitor A was combined with each concentration of inhibitor B to determine their combination effects on inhibition of rcDNA production. Following a 48 hour-incubation, the level of rcDNA present in the inhibitor-treated wells was measured using a bDNA assay (Affymetrix) with HBV specific custom probe set and manufacturers instructions. […] Concurrently, the effect of inhibitor combinations on cell viability was assessed using replicate plates that were used to determine the ATP content as a measure of cell viability using the Cell-TiterGlo reagent (Promega) as per manufacturer's instructions.
# In vitro combination studies were conducted using the method of Prichard and Shipman (1990) (Prichard M N, Shipman C, Jr. 1990. A three-dimensional model to analyze drug-drug interactions. Antiviral Res 14:181-205 AND Prichard M N. 1992. MacSynergy II, University of Michigan).
smiles,measurement,setting,value
C=C1[C@H](CO)[C@@H](O)C[C@@H]1n1cnc2c(=O)[nH]c(N)nc21 [Entecavir],AVERAGE % INHIBITION (rcDNA),ETV 0.016 nM,−43.72%
same,AVERAGE % INHIBITION (rcDNA),ETV 0.031 nM,−50.07%
same,AVERAGE % INHIBITION (rcDNA),ETV 0.063 nM,−30.26%
same,AVERAGE % INHIBITION (rcDNA),ETV 0.125 nM,−23.47%
same,AVERAGE % INHIBITION (rcDNA),ETV 0.250 nM,−21.25%
same,AVERAGE % INHIBITION (rcDNA),ETV 1.000 nM,41.71%
same,AVERAGE % INHIBITION (rcDNA),ETV 2.000 nM,58.35%
same,AVERAGE % INHIBITION (rcDNA),ETV 4.000 nM,69.99%
same,EC50,"Hepatitis B virus, HepDE19, rcDNA by bDNA assay, ETV, read-out: Inhibitor B EC50",1.78 nM
same,ADDITIVE INHIBITION,ETV 0.015625 nM,−43.72%
same,ADDITIVE INHIBITION,ETV 0.03125 nM,−50.07%
same,ADDITIVE INHIBITION,ETV 0.0625 nM,−30.26%
same,ADDITIVE INHIBITION,ETV 0.125 nM,−23.47%
same,ADDITIVE INHIBITION,ETV 0.25 nM,−21.25%
same,ADDITIVE INHIBITION,ETV 1 nM,41.71%
same,ADDITIVE INHIBITION,ETV 2 nM,58.35%
same,ADDITIVE INHIBITION,ETV 4 nM,69.99%
